Experimental data taken from patent US6410557B1, “Dry skin remedies” (Daiichi Pharmaceutical Col, Ltd., priority 1999, dated 2002).
Read-outs that look alike come from different tables or passages of the source.

How the values were obtained:
Rat Foot Skin = test: Promoting action on the secretion of sweat in rat foot skin (starch-iodine reaction); assay type: in vivo
Protocol: A pharmacological activity test was carried out using 6 male Wister rats (body weight 199-238 g) in one group. After fasting for 1 day, rats were anesthetized by 50 mg/kg of sodium pentobarbital which was intraperitoneally administered, and an endotracheal tube was inserted to maintain the airway.
The soles of the right and left feet were cleaned with 70% ethanol, then 95% ethanol containing 2% of iodine was applied and allowed to dry. Castor oil containing 50% corn starch was coated to the soles of both feet, 5 minutes later a solvent alone or 1,3,10, and 30 mg/kg of cis-2-methylspiro(1,3-oxathiolane-5,3′)quinuclidine hydrochloride were administered intravenously.

Humans = test system: Humans
Protocol: A multi-facility double blind comparison study was carried out for examination of perspiration promoting action on human, by preparing capsules containing 30 or 60 mg of cis-2-methylspiro(1,3-oxathiolane-5,3′)quinuclidine hydrochloride. 75 Americans (69 White, 1 Black, and 5 Hispanic subjects) were divided into 3 groups randomly. Each group received either one placebo capsule (0 mg), one 30 mg capsule, or one 60 mg capsule orally administered three times a day for 6 weeks. The increase of perspiration in each group was tested.

[1] = 30 mg capsule orally × 3/day for 6 weeks, 25 subjects
[2] = 60 mg capsule orally × 3/day for 6 weeks, 27 subjects

| SMILES | effect on the sweat secretion promoting activity of the quinuclidine hydrochloride (Rat Foot Skin; rat soles of feet) | Number of Subjects Showing perspiration (Humans; [1]) | Number of Subjects Showing perspiration (%) (Humans; [1]) | Number of Subjects Showing perspiration (Humans; [2]) | Number of Subjects Showing perspiration (%) (Humans; [2]) | sweat secretion of human (Humans; capsules, oral, three times a day for 6 weeks) | sweat secretion on the soles of both feet (number of colored points, degree of perspiration) (Rat Foot Skin; anesthetized male Wister rats, 1, 3, 10 and 30 mg/kg intravenously, FIG. 1) |
| --- | --- | --- | --- | --- | --- | --- | --- |
| CN1[C@@H]2CC[C@H]1C[C@@H](OC(=O)C(CO)c1ccccc1)C2 (stereo partly shown) [atropine, reference compound] | blocks this activity | – | – | – | – | – | – |
| CC1OC2(CS1)CN1CCC2CC1.Cl (stereo not drawn) [cis-2-methylspiro(1,3-oxathiolane-5,3′)quinuclidine hydrochloride] | – | 4 | 16.0 | 13 | 48.1 | remarkably promoted | promoted depending on the dose level |
